Results published in PubChem BioAssay (NCI).
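96-well plates; 48 h exposure; 5 concentrations. Endpoints by linear interpolation between flanking doses. Not reached: highest tested concentration assigned. GI50 = concentration required for 50% inhibition of growth. The concentration for full growth arrest is given as TGI.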

Columns and labels:
Assay in all cases: NCI anticancer screen, dose series, 48 h
HCC-2998 colon = tested on: HCC-2998 colon
SF-268 CNS = tested on: SF-268 CNS
SNB-75 CNS = tested on: SNB-75 CNS
A498 renal = tested on: A498 renal
EKVX NSCLC = tested on: EKVX NSCLC
SW-620 colon = tested on: SW-620 colon
SK-MEL-28 melanoma = tested on: SK-MEL-28 melanoma
NCI-H460 lung = tested on: NCI-H460 lung
TK-10 renal = tested on: TK-10 renal
HOP-92 NSCLC = tested on: HOP-92 NSCLC
SK-MEL-5 melanoma = tested on: SK-MEL-5 melanoma
HT29 colon = tested on: HT29 colon
MDA-MB-435 = tested on: MDA-MB-435
CCRF-CEM leukemia = tested on: CCRF-CEM leukemia
NCI/ADR-RES ovarian = tested on: NCI/ADR-RES ovarian
MOLT-4 leukemia = tested on: MOLT-4 leukemia
HS 578T breast = tested on: HS 578T breast
ACHN renal = tested on: ACHN renal
HL-60(TB) leukemia = tested on: HL-60(TB) leukemia
T-47D breast = tested on: T-47D breast
HCT-15 colon = tested on: HCT-15 colon
COLO 205 colon = tested on: COLO 205 colon
DU-145 prostate = tested on: DU-145 prostate
BT-549 breast = tested on: BT-549 breast
OVCAR-4 ovarian = tested on: OVCAR-4 ovarian
UO-31 renal = tested on: UO-31 renal
UACC-62 melanoma = tested on: UACC-62 melanoma
SR leukemia = tested on: SR leukemia
SN12C renal = tested on: SN12C renal
CAKI-1 renal = tested on: CAKI-1 renal
K-562 leukemia = tested on: K-562 leukemia
OVCAR-5 ovarian = tested on: OVCAR-5 ovarian
RPMI-8226 leukemia = tested on: RPMI-8226 leukemia
MCF7 breast = tested on: MCF7 breast
NCI-H23 lung = tested on: NCI-H23 lung
SNB-19 CNS = tested on: SNB-19 CNS
MALME-3M melanoma = tested on: MALME-3M melanoma
LOX IMVI melanoma = tested on: LOX IMVI melanoma
SF-539 CNS = tested on: SF-539 CNS
M14 melanoma = tested on: M14 melanoma
MDA-MB-231 breast = tested on: MDA-MB-231 breast
SF-295 CNS = tested on: SF-295 CNS
IGROV1 ovarian = tested on: IGROV1 ovarian
HCT-116 colon = tested on: HCT-116 colon
KM12 colon = tested on: KM12 colon

Which GI50 (HCC-2998 colon) does the source give for `[Cl][Ru].c1ccc(-c2cc(-c3ccccn3)nc(-c3ccccn3)c2)cc1.c1ccc(-c2ccnc3c2ccc2c(-c4ccccc4)ccnc23)cc1` here?
Its GI50 is 0.356 µM.

And the TGI (HCC-2998 colon)?
Its TGI is 1.45 µM.

And the GI50 (SF-268 CNS)?
The GI50 was 0.489 µM.

And the GI50 (SNB-75 CNS)?
The GI50 was 0.179 µM.

What about the TGI (SNB-75 CNS) of the same compound?
Its TGI is 0.829 µM.

What about the GI50 (A498 renal) of the same compound?
The GI50 was 1.93 µM.

And the TGI (A498 renal)?
The TGI was 4.56 µM.

What about the GI50 (EKVX NSCLC) of the same compound?
The GI50 was 0.352 µM.

And the TGI (EKVX NSCLC)?
Its TGI is 2.36 µM.

What about the GI50 (SW-620 colon) of the same compound?
Its GI50 is 0.451 µM.

What about the TGI (SW-620 colon) of the same compound?
Its TGI is 1.67 µM.

And the GI50 (SK-MEL-28 melanoma)?
The GI50 was 0.418 µM.

What about the TGI (SK-MEL-28 melanoma) of the same compound?
The TGI was 1.58 µM.

And the GI50 (NCI-H460 lung)?
Its GI50 is 0.351 µM.

And the TGI (NCI-H460 lung)?
The TGI was 1.12 µM.

And the GI50 (TK-10 renal)?
The GI50 was 1.6 µM.

And the TGI (TK-10 renal)?
The TGI was 4.15 µM.

And the GI50 (HOP-92 NSCLC)?
The GI50 was 0.139 µM.

What about the TGI (HOP-92 NSCLC) of the same compound?
Its TGI is 0.543 µM.

And the GI50 (SK-MEL-5 melanoma)?
The GI50 was 0.577 µM.

What about the TGI (SK-MEL-5 melanoma) of the same compound?
The TGI was 1.84 µM.

What about the GI50 (HT29 colon) of the same compound?
Its GI50 is 0.333 µM.

What about the TGI (HT29 colon) of the same compound?
The TGI was 1.31 µM.

And the GI50 (MDA-MB-435)?
Its GI50 is 0.322 µM.

And the TGI (MDA-MB-435)?
The TGI was 1.01 µM.

What about the GI50 (CCRF-CEM leukemia) of the same compound?
The GI50 was 0.415 µM.

What about the GI50 (NCI/ADR-RES ovarian) of the same compound?
The GI50 was 31.1 µM.

What about the TGI (NCI/ADR-RES ovarian) of the same compound?
The TGI was over 100 µM.

And the GI50 (MOLT-4 leukemia)?
Its GI50 is 0.332 µM.

What about the TGI (MOLT-4 leukemia) of the same compound?
The TGI was 1.62 µM.

And the GI50 (HS 578T breast)?
The GI50 was 0.275 µM.

And the TGI (HS 578T breast)?
Its TGI is 0.919 µM.

What about the GI50 (ACHN renal) of the same compound?
Its GI50 is 3.23 µM.

What about the TGI (ACHN renal) of the same compound?
The TGI was 25.7 µM.

What about the GI50 (HL-60(TB) leukemia) of the same compound?
Its GI50 is 0.252 µM.

What about the TGI (HL-60(TB) leukemia) of the same compound?
Its TGI is 0.696 µM.

And the GI50 (T-47D breast)?
Its GI50 is 0.27 µM.

And the TGI (T-47D breast)?
The TGI was 1.07 µM.

And the GI50 (HCT-15 colon)?
The GI50 was 2.08 µM.

And the TGI (HCT-15 colon)?
Its TGI is 4.73 µM.

What about the GI50 (COLO 205 colon) of the same compound?
Its GI50 is 0.182 µM.

And the TGI (COLO 205 colon)?
Its TGI is 0.335 µM.

And the GI50 (DU-145 prostate)?
The GI50 was 0.529 µM.

And the GI50 (BT-549 breast)?
The GI50 was 0.224 µM.

What about the TGI (BT-549 breast) of the same compound?
Its TGI is 0.869 µM.

And the GI50 (OVCAR-4 ovarian)?
Its GI50 is 0.424 µM.

What about the TGI (OVCAR-4 ovarian) of the same compound?
The TGI was 2.5 µM.

What about the GI50 (UO-31 renal) of the same compound?
The GI50 was 2.62 µM.

What about the TGI (UO-31 renal) of the same compound?
The TGI was over 45.8 µM.

And the GI50 (UACC-62 melanoma)?
The GI50 was 0.292 µM.

What about the TGI (UACC-62 melanoma) of the same compound?
Its TGI is 1.17 µM.

And the TGI (SR leukemia)?
The TGI was 1.09 µM.

What about the GI50 (SN12C renal) of the same compound?
Its GI50 is 0.266 µM.

What about the TGI (SN12C renal) of the same compound?
The TGI was 0.915 µM.

And the GI50 (CAKI-1 renal)?
The GI50 was 3.15 µM.

What about the TGI (CAKI-1 renal) of the same compound?
The TGI was 26.6 µM.

What about the GI50 (K-562 leukemia) of the same compound?
Its GI50 is 0.301 µM.

And the TGI (K-562 leukemia)?
The TGI was 4.66 µM.

And the GI50 (OVCAR-5 ovarian)?
Its GI50 is 0.396 µM.

What about the TGI (OVCAR-5 ovarian) of the same compound?
The TGI was 1.71 µM.

What about the GI50 (RPMI-8226 leukemia) of the same compound?
The GI50 was 0.232 µM.

What about the TGI (RPMI-8226 leukemia) of the same compound?
Its TGI is 0.727 µM.

How did the GI50 (HCC-2998 colon) turn out when `CCOC(=O)c1c(NC(=O)c2cccc(C(F)(F)F)c2)sc2c(CN3CCN(C)CC3)c(O)ccc12` was run?
Its GI50 is 1.65 µM.

And the TGI (HCC-2998 colon)?
The TGI was 3.37 µM.

What about the GI50 (MCF7 breast) of the same compound?
Its GI50 is 1.51 µM.

And the TGI (MCF7 breast)?
The TGI was 3.03 µM.

And the GI50 (EKVX NSCLC)?
Its GI50 is 1.69 µM.

What about the TGI (EKVX NSCLC) of the same compound?
The TGI was 3.31 µM.

And the GI50 (SK-MEL-28 melanoma)?
The GI50 was 1.72 µM.

And the TGI (SK-MEL-28 melanoma)?
The TGI was 3.15 µM.

What about the GI50 (NCI-H23 lung) of the same compound?
The GI50 was 1.76 µM.

And the TGI (NCI-H23 lung)?
The TGI was 3.28 µM.

What about the GI50 (SNB-19 CNS) of the same compound?
The GI50 was 1.72 µM.

And the TGI (SNB-19 CNS)?
Its TGI is 3.31 µM.

And the GI50 (MALME-3M melanoma)?
Its GI50 is 1.65 µM.

What about the TGI (MALME-3M melanoma) of the same compound?
Its TGI is 3.15 µM.

And the GI50 (SK-MEL-5 melanoma)?
Its GI50 is 1.79 µM.

What about the TGI (SK-MEL-5 melanoma) of the same compound?
The TGI was 3.4 µM.

And the GI50 (MDA-MB-435)?
The GI50 was 1.69 µM.

And the TGI (MDA-MB-435)?
The TGI was 3.1 µM.

What about the GI50 (CCRF-CEM leukemia) of the same compound?
Its GI50 is 1.51 µM.

What about the TGI (CCRF-CEM leukemia) of the same compound?
The TGI was 4.22 µM.

What about the GI50 (LOX IMVI melanoma) of the same compound?
Its GI50 is 1.76 µM.

And the TGI (LOX IMVI melanoma)?
Its TGI is 3.31 µM.

What about the GI50 (SF-539 CNS) of the same compound?
Its GI50 is 1.62 µM.

What about the TGI (SF-539 CNS) of the same compound?
Its TGI is 3.06 µM.

And the GI50 (M14 melanoma)?
Its GI50 is 1.88 µM.

And the TGI (M14 melanoma)?
Its TGI is 3.53 µM.

What about the GI50 (MDA-MB-231 breast) of the same compound?
Its GI50 is 1.65 µM.

What about the TGI (MDA-MB-231 breast) of the same compound?
The TGI was 3.11 µM.

What about the GI50 (SF-295 CNS) of the same compound?
Its GI50 is 1.7 µM.

What about the TGI (SF-295 CNS) of the same compound?
The TGI was 3.25 µM.

And the GI50 (HS 578T breast)?
The GI50 was 1.89 µM.

What about the TGI (HS 578T breast) of the same compound?
The TGI was 4.51 µM.

What about the GI50 (ACHN renal) of the same compound?
The GI50 was 1.82 µM.

And the TGI (ACHN renal)?
The TGI was 3.31 µM.

And the GI50 (HCT-15 colon)?
The GI50 was 1.61 µM.

And the TGI (HCT-15 colon)?
The TGI was 3.13 µM.

What about the GI50 (IGROV1 ovarian) of the same compound?
Its GI50 is 1.7 µM.

And the TGI (IGROV1 ovarian)?
The TGI was 3.27 µM.

What about the GI50 (HCT-116 colon) of the same compound?
Its GI50 is 1 µM.

What about the TGI (HCT-116 colon) of the same compound?
The TGI was 2.43 µM.

And the GI50 (UO-31 renal)?
Its GI50 is 1.52 µM.

What about the TGI (UO-31 renal) of the same compound?
Its TGI is 3 µM.

And the GI50 (UACC-62 melanoma)?
Its GI50 is 1.76 µM.

And the TGI (UACC-62 melanoma)?
The TGI was 3.27 µM.

What about the GI50 (SN12C renal) of the same compound?
Its GI50 is 1.67 µM.

And the TGI (SN12C renal)?
Its TGI is 3.16 µM.

And the GI50 (OVCAR-5 ovarian)?
The GI50 was 1.5 µM.

What about the TGI (OVCAR-5 ovarian) of the same compound?
Its TGI is 2.85 µM.

What about the GI50 (KM12 colon) of the same compound?
Its GI50 is 1.86 µM.

What about the TGI (KM12 colon) of the same compound?
The TGI was 3.4 µM.
